Experimental data as given in patent publication US8637664B2, “Alkyl 4- [4- (5-oxo-2,3,5, 11a-tetrahydo-5H-pyrrolo [2, 1-c] [1,4] benzodiazepine-8-yloxy)-butyrylamino]-1H-pyrrole-2-carboxylate derivatives and related compounds for the treatment of a proliferative disease” (Spirogen SARL, priority 2005, dated 2014).
Like-named read-outs stand apart in the source and are kept apart here. Marks after values point to notes of the source that are not given here.

Assays:
[1] = test system: calf thymus DNA (CT-DNA); assay: DNA thermal denaturation (melting) studies; type: binding; conditions: CT-DNA 100 μM DNAp, compound 20 μM, 37 °C; for Induced ΔTm after incubation 0 hours: pH 7.00, 0 hours; for Induced ΔTm after incubation 4 hours: pH 7.00, 4 hours; for Induced ΔTm after incubation 18 hours: pH 7.00, 18 hours
Method: The PBD agents were subjected to DNA thermal melting (denaturation) studies (Gregson, S. J., et al., Journal of Medicinal Chemistry, 44(5), 737-748 (2001); Jones, G. B., et al., Anti-Cancer Drug Design, 5(3), 249-264 (1990); McConnaughie, A. W. and; Jenkins, T. C. Journal of Medicinal Chemistry, 38(18), 3488-3501 (1995)) using calf thymus DNA (CT-DNA, type-1, highly polymerized sodium salt; 42% G+C [Sigma]) at a fixed 100 μM (DNAp=50 μM bp) concentration, determined using an extinction coefficient of 6600 (M phosphate)^−1 cm^−1 at 260 nm (Manzini, G., et al., Nucleic Acids Research, 11(24), 8861-8876 (1983)). Solutions were prepared in pH 7.00±0.01 aqueous buffer containing 10 mM NaH2PO4/Na2HPO4 and 1 mM EDTA. Working solutions containing CT-DNA and the test compound (20 μM) were incubated at 37.0±0.1° C. for 0 to 18 hours using an external water bath. Samples were monitored at 260 nm using a Varian-Cary 400 Bio spectrophotometer fitted with a Peltier heating accessory. Heating was applied at a rate of 1° C./min in the 45 to 98° C. temperature range, with optical and temperature data sampling at 200 ms intervals. A separate experiment was carried out using buffer alone, and this baseline was subtracted from each DNA melting curve before data treatment. Optical data were imported into the Origin 5 program (MicroCal Inc., Northampton, Mass.) for analysis. DNA helix→coil transition temperatures (Tm) were determined at the midpoint of the normalized melting profiles using a published analytical procedure (Jones, G. B., et al., Anti-Cancer Drug Design, 5(3), 249-264 (1990)). Results are given in table 1 as the mean±standard deviation from at least three determinations. Ligand-induced alterations in DNA melting behaviour (ΔTm) are given by ΔTm=Tm(DNA+ligand)−Tm(DNA), where the Tm value determined for free CT-DNA is 67.82±0.06° C. (averaged from >90 runs). All PBD compounds were dissolved in HPLC-grade MeOH to give working solutions containing ≦0.6% v/v MeOH; Tm results were corrected for the effects of MeOH co-solvent by using a linear correction term.
The above method was also carried out on the compounds of example 2, with all compounds being incubated for up to 72 hours.

[2] = target: 262 bp DNA fragment (MS2F or MS2R) of MS2 plasmid; assay: DNase I footprinting on MS2 DNA fragment; type: binding
Method: The sequence selectivity of the six PBD-pyrrole conjugates (21, 23, 25, 27, 29) was evaluated by standard DNA footprinting on a fragment of MS2 as follows, in accordance with the technique described in Martin, C., et al., (Martin, C., et al., Biochemistry, 44(11), 4135-4147 (2005))
Forward (5′-[…]-3′) or reverse (5′-[…]-3′) primer was 5′-end labelled with ^32P by T4 polynucleotide kinase. Labelling mixture contained primer (5 pmol; Sigma-Genosys), 10× kinase buffer (1 μl; Promega), (γ-^32P)-ATP (2μ of 10 μCi/μl, 6000 Ci/mmol; Perkin Elmer Life Sciences), and T4 polynucleotide kinase (10 U; Promega) in a 10 μl final volume. Labelling mix was incubated at 37° C. for 30 minutes followed by inactivation of the kinase at 70° C. for 10 minutes. A 262 bp DNA fragment (MS2F or MS2R) was amplified from the MS2 plasmid using PCR with either labelled forward or reverse primer and the unlabelled primer as required. Reactions were comprised of labelled primer mix (10 μl), 10×PCR buffer (5 μl; Sigma), dNTPs (5 μl; 2.5 mM each of A, C, G and T, Amersham Pharmacia), unlabelled primer as required ([…]), MS2 plasmid template DNA (10 ng) and Taq DNA polymerase (5 U; Sigma) in a 50 μl final volume. Radiolabelled 262-mer was purified by non-denaturing polyacrylamide gel electrophoresis, elution, filtration and EtOH precipitation and was resuspended in a solution of Tris-HCl (10 mM) pH 7.4/NaCl (10 mM) to yield an activity of 200 counts per second per 5 μl when held up, in a pipette tip, to a capped Morgan series 900 mini-monitor.
For DNase I footprinting radiolabelled 262-mer (2 μl) was incubated overnight (16-18 h) with drug solution (388 μl) or in an aqueous buffer [HEPES (20 mM) pH 7.9, NaCl (50 mM), MgCl2 (1 mM), DTT (5 mM), 10% glycerol] in control reactions. Enzymatic cleavage was initiated by addition of DNase I solution (10 μl of 0.05 U/ml; Sigma) in aqueous NaCl (200 mM), MgCl2 (20 mM) and MnCl2 (20 mM) and halted with stop solution [40 μl of NaCl (2.25 M), EDTA (150 mM) pH 8.0, 0.57 μg/μl glycogen (0.57 μg/μl; Roche), poly(dl-dC).poly(dl-dC) DNA (19.3 ng/μl; Amersham Pharmacia)]. From this mixture, digested DNA fragments were prepared for electrophoresis following the protocol of Trauger & Dervan, and were loaded on to a preheated 8% denaturing polyacrylamide gel. Electrophoresis in 1×TBE buffer was allowed to proceed for 100 min at 70 W (1600-2000 V). The gel was the fixed in acetic acid (10% v/v) and methanol (10% v/v) for 15 minutes followed by being blotted onto Whatman 3 mM paper and vacuum-dried at 80° C. for 45 minutes.
Dried gels were stored at room temperature in phosphor storage screens (Molecular Dynamics) for a minimum period of 12 h. Data were collected from exposed screens using a Molecular Dynamics 425E Phosphorlmager and transferred to ImageQuant v1.2 software (Molecular Dynamics) for analysis. Data were expressed as the differential cleavage between control and sample lanes. Peaks were integrated and differential cleavage calculated as ln(fd)−ln(fc); (fd is the fractional cleavage at any particular bond in the presence of drug and fc is the fractional cleavage of the same bond in the control). Maxam-Gilbert G+A marker lanes were prepared in the usual fashion.
The vast majority of footprint sites are common features in the binding profiles of all six conjugates, with only a small number of sites being footprinted by a subset of the family. Even more unexpectedly, no site is footprinted by only one molecule (in fact, the fewest number of conjugates that bind at any single site is four). The differential cleavage plot provides footprinting profiles at a supramaximal concentration colour-coded for each conjugate which illustrates a striking degree of overlap. Although there is no conspicuous change in footprinting patterns as the number of pyrroles units in each conjugate increases, there are changes in two other features, namely, the apparent binding affinity and the width of the footprinted site. […]

[3] = test system: K562 human chronic myeloid leukaemia cells; assay: In vitro cytotoxicity, MTT assay; type: cell-based; conditions: K562, 1 hour drug exposure, MTT after 4 days
Method: K562 human chronic myeloid leukaemia cells were maintained in RPM1 1640 medium supplemented with 10% fetal calf serum and 2 mM glutamine at 37° C. in a humidified atmosphere containing 5% CO2 and were incubated with a specified dose of drug for 1 hour at 37° C. in the dark. The incubation was terminated by centrifugation (5 min, 300 g) and the cells were washed once with drug-free medium. Following the appropriate drug treatment, the cells were transferred to 96-well microtiter plates (10^4 cells per well, 8 wells per sample). Plates were then kept in the dark at 37° C. in a humidified atmosphere containing 5% CO2. The assay is based on the ability of viable cells to reduce a yellow soluble tetrazolium salt, 3-(4,5-dimethylthiazol-2-yl)-2,5-diphenyl-2H-tetrazolium bromide (MTT, Aldrich-Sigma), to an insoluble purple formazan precipitate. Following incubation of the plates for 4 days (to allow control cells to increase in number by approximately 10 fold), 20 μL of MTT solution (5 mg/mL in phosphate-buffered saline) was added to each well and the plates further incubated for 5 hours. The plates were then centrifuged for 5 minutes at 300 g and the bulk of the medium pipetted from the cell pellet leaving 10-20 μL per well. DMSO (200 μL) was added to each well and the samples agitated to ensure complete mixing. The optical density was then read at a wavelength of 550 nm on a Titertek Multiscan ELISA plate reader, and a dose-response curve was constructed.

[4] = test system: NF-Y binding at ICB2 of Topoisomerase IIα promoter; assay: NF-Y gel shift assay (EMSA) at ICB2
[5] = test system: 170 bp sequence of the human Topo-IIa promoter; assay: DNase I footprinting on Topo-IIa promoter (ICB1, ICB2 sites); type: binding
Method: In a similar manner to Example 4, the affinity and sequence selectivity of certain compounds of examples 1 and 2 was evaluated by standard DNA footprinting on a 170 bp sequence of the human Topo-IIa promoter, in accordance with the technique described in Martin, C., et al.
Selected results are shown in FIG. 9, wherein the concentrations of the lanes were 0, 1.6, 8, 40, 200, 1000, 5000 and 25000 nM in each case.
The footprinting results allowed the identification of compounds that could potentially disrupt transcription factor binding at the ICB1 and ICB2 sites. […] These compounds are detailed below in table 3, showing the concentrations (μM) at which the PBD-heterocycle conjugates bind at ICB1 and ICB2.

[6] = test system: NF-Y binding at ICB1 of Topoisomerase IIα promoter; assay: NF-Y gel shift assay (EMSA) at ICB1
[7] = read-out: DNase IC50 (apparent binding affinity; 50% inhibition of DNase I-mediated cleavage), estimated by eye, site 5′-62CAATACACA70-3′

SMILES: COC(=O)c1cc(NC(=O)CCCOc2cc3c(cc2OC)C(=O)N2CCC[C@H]2C=N3)cn1C [Compound 21, (11aS) Methyl 4-[4-(7-methoxy-5-oxo-2,3,5,11a-tetrahydro-5H-pyrrolo[2,1-c][1,4]benzodiazepine-8-yloxy)-butyrylamino]-1-methyl-1H-pyrrole-2-carboxylate]
- Induced ΔTm after incubation 0 hours [1]: 6.5 °C
- Induced ΔTm after incubation 4 hours [1]: 7.9 °C
- Induced ΔTm after incubation 18 hours [1]: 8.1 °C
- IC50 ([2]; estimated by eye from footprint gel, read-out: DNase IC50 (apparent binding affinity)): ≥ 10 µM
- IC50 ([3]; Homo sapiens): 0.051 µM

SMILES: COC(=O)c1cc(NC(=O)c2cc(NC(=O)c3cc(NC(=O)CCCOc4cc5c(cc4OC)C(=O)N4CCC[C@H]4C=N5)cn3C)cn2C)cn1C [Compound 25, (11aS) Methyl 4-{[4-({4-[4-(7-Methoxy-6-oxo-2,3,5,11a-tetrahydro-5H-pyrrolo[2,1-c][1,4]benzodiazepine-8-yloxy)-butyrylamino]-1-methyl-1H-pyrrole-2-carbonyl]-amino)-1-methyl-1H-pyrrole-2-carbonyl]-amino}-1-methyl-1H-pyrrole-2-carboxylate]
- Induced ΔTm after incubation 0 hours [1]: 17.3 °C
- Induced ΔTm after incubation 4 hours [1]: 19.6 °C
- Induced ΔTm after incubation 18 hours [1]: 21.2 °C
- IC50 [2, 7]: 0.03 to 0.1 µM
- IC50 [3]: 0.041 µM

SMILES: COC(=O)c1cc(NC(=O)c2cc(NC(=O)c3cc(NC(=O)c4cc(NC(=O)CCCOc5cc6c(cc5OC)C(=O)N5CCC[C@H]5C=N6)cn4C)cn3C)cn2C)cn1C [Compound 27, (11aS) Methyl 4-[(4-{[4-({4-[4-(7-Methoxy-5-oxo-2,3,5,11a-tetrahydro-5H-pyrrolo[2,1-c][1,4]benzodiazepine-8-yloxy)-butyrylamino]-1-methyl-1H-pyrrole-2-carbonyl]-amino)-1-methyl-1H-pyrrole-2-carbonyl]-amino}-1-methyl-1H-pyrrole-2-carbonyl)-amino]-1-methyl-1H-pyrrole-2-carboxylate]
- Induced ΔTm after incubation 0 hours [1]: 16.0 °C
- Induced ΔTm after incubation 4 hours [1]: 18.5 °C
- Induced ΔTm after incubation 18 hours [1]: 19.0^y ° C.
- IC50 [2, 7]: ~0.03 µM
- IC50 [3]: 0.047 µM

SMILES: COC(=O)c1cc(NC(=O)c2cc(NC(=O)c3cc(NC(=O)c4cc(NC(=O)c5cc(NC(=O)CCCOc6cc7c(cc6OC)C(=O)N6CCC[C@H]6C=N7)cn5C)cn4C)cn3C)cn2C)cn1C [Compound 29, (11aS) Methyl 4-({4-[(4-{[4-({4-[4-(7-Methoxy-5-oxo-2,3,5,11a-tetrahydro-5H-pyrrolo[2,1-c][1,4]benzodiazepine-8-yloxy)-butyrylamino]-1-methyl-1H-pyrrole-2-carbonyl]-amino)-1-methyl-1H-pyrrole-2-carbonyl]-amino}-1-methyl-1H-pyrrole-2-carbonyl)-amino]-1-methyl-1H-pyrrole-2-carbonyl}-amino)-1-methyl-1H-pyrrole-2-carboxylate]
- Induced ΔTm after incubation 0 hours [1]: 15.1 °C
- Induced ΔTm after incubation 4 hours [1]: 15.9 °C
- Induced ΔTm after incubation 18 hours [1]: 17.1 °C
- IC50 [3]: 0.083 µM

SMILES: COC(=O)c1cc(NC(=O)c2cc(NC(=O)c3nc(NC(=O)CCCOc4cc5c(cc4OC)C(=O)N4CCC[C@H]4C=N5)cn3C)cn2C)cn1C [Compound 67]
- Lowest concentration at which NF-Y binding inhibition was observed [4]: 5 µM
- Induced ΔTm after incubation 0 hours [1]: 19.1 °C
- Induced ΔTm after incubation 4 hours [1]: 19.8 °C
- Induced ΔTm after incubation 18 hours [1]: 21.1 °C
- Induced ΔTm after incubation 72 hours ([1]; pH 7.00, 72 hours): 21.6 °C
- Concentration at which DNA binding is observed, ICB1 ([5]; ICB1 site): 5 µM
- Concentration at which DNA binding is observed, ICB2 ([5]; ICB2 site): 1 µM
- Lowest concentration at which NF-Y binding inhibition was observed [6]: 50 µM
